This note sets out measurements from ChEMBL document CHEMBL3425400, “Is RK-682 a promiscuous enzyme inhibitor? Synthesis and in vitro evaluation of protein tyrosine phosphatase inhibition of racemic RK-682 and analogues” (Eur J Med Chem, 2015).

The target of data set [1] is T1, Tyrosine-protein phosphatase non-receptor type 1 (Homo sapiens, UniProt P18031).
T1 sequence (P18031 whole entry): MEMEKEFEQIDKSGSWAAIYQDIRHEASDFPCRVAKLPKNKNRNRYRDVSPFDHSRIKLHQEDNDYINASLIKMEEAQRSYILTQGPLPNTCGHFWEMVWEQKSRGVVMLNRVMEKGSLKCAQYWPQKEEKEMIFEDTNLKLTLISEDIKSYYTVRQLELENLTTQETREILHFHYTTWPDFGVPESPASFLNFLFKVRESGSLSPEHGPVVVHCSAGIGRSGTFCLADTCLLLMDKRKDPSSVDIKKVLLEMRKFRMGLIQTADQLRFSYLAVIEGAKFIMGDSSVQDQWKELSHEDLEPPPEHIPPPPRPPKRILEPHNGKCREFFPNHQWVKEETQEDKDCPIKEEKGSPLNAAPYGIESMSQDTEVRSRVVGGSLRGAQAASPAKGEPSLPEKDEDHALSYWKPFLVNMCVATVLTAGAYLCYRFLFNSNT
Kind of data set: Inhibition of 6-His-N-terminal tagged human PTP1B expressed in Escherichia coli BL21 (DE3) cells assessed as pNP formation using pNPP as substrate incubated for 15 mins prior to substrate addition by plate reader analysis.

In data set [2] the target is T2, M-phase inducer phosphatase 2 (Homo sapiens, UniProt P30305).
T2 sequence (P30305 whole entry): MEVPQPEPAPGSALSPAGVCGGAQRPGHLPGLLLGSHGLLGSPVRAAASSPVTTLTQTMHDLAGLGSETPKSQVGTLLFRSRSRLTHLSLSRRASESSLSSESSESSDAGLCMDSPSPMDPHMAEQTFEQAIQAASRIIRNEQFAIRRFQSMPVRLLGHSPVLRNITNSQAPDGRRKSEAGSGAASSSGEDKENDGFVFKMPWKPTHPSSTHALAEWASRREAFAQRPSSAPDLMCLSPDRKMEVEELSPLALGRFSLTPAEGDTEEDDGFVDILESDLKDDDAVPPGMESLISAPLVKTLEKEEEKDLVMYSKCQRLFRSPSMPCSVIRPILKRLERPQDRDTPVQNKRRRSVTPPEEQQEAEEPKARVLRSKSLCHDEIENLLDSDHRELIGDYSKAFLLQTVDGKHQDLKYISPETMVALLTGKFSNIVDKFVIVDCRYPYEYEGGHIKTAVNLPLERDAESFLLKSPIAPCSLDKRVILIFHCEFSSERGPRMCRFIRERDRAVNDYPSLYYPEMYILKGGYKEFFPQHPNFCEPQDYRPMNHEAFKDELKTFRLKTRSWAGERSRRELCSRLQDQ
Kind of data set: Inhibition of 6-His-N-terminal tagged human CDC-25B isoform 3 catalytic domain expressed in Escherichia coli BL21 (DE3) cells assessed as pNP formation using pNPP as substrate incubated for 15 mins prior to substrate addition by plate reader analysis.

For data set [3], the target named is T3, Low molecular weight phosphotyrosine protein phosphatase (Homo sapiens, UniProt P24666).
T3 sequence (P24666 whole entry): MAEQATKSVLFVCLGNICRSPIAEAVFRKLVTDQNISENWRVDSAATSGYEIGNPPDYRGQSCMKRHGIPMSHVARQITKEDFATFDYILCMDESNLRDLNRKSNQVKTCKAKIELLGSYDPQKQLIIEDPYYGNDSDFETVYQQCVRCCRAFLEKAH
Kind of data set: Inhibition of full length 6-His-N-terminal tagged human LMW-PTP expressed in Escherichia coli BL21 (DE3) cells assessed as pNP formation using pNPP as substrate incubated for 15 mins prior to substrate addition by plate reader analysis.

The target of data set [4] is T4, M-phase inducer phosphatase 2 (Homo sapiens) (UniProt P30305).
T4 sequence (whole entry): T2 sequence (P30305 whole entry)
The experiment in a line: Inhibition of 6-His-N-terminal tagged human CDC-25B isoform 3 catalytic domain expressed in Escherichia coli BL21 (DE3) cells assessed as pNP formation using pNPP as substrate at 100 uM incubated for 15 mins prior to substrate addition by plate reader analysis.

Data set [5] has as its target T5, Low molecular weight phosphotyrosine protein phosphatase (Homo sapiens) (UniProt P24666).
T5 sequence (whole entry): T3 sequence (P24666 whole entry)
Kind of data set: Inhibition of full length 6-His-N-terminal tagged human LMW-PTP expressed in Escherichia coli BL21 (DE3) cells assessed as pNP formation using pNPP as substrate at 100 uM incubated for 15 mins prior to substrate addition by plate reader analysis.

A short description of data set [6]: Retardation factor of the compound using Hexanes:AcOEt (1:1) as solvent system by column chromatography. Format: physicochemical.
Data set [7] deals with T6, Tyrosine-protein phosphatase non-receptor type 1 (Homo sapiens) (UniProt P18031).
T6 sequence (whole entry): T1 sequence (P18031 whole entry)
The experiment in a line: Inhibition of 6-His-N-terminal tagged human PTP1B expressed in Escherichia coli BL21 (DE3) cells assessed as pNP formation using pNPP as substrate incubated for 15 mins prior to substrate addition by plate reader analysis in presence of 25 mM ammonium sulfate.

The target in data set [8] is T5, Low molecular weight phosphotyrosine protein phosphatase (Homo sapiens). The experiment in a line: Mixed type of inhibition of full length 6-His-N-terminal tagged human LMW-PTP expressed in Escherichia coli BL21 (DE3) cells using pNPP as substrate by Lineweaver-Burk plot analysis.
Data set [9] concerns the target T6, Tyrosine-protein phosphatase non-receptor type 1 (Homo sapiens). The experiment in a line: Time-dependent inhibition of 6-His-N-terminal tagged human PTP1B expressed in Escherichia coli BL21 (DE3) cells using pNPP as substrate treated with compound prior to substrate addition by plate reader analysis. Particulars: TDE = time-dependent effect.
Data set [10] shares this target. Kind of data set: Mixed type of inhibition of 6-His-N-terminal tagged human PTP1B expressed in Escherichia coli BL21 (DE3) cells using pNPP as substrate by Lineweaver-Burk plot analysis.
A short description of data set [11]: Retardation factor of the compound using Hexanes:AcOEt (2:1) as solvent system by column chromatography. Format: physicochemical.
The nature of data set [12]: Retardation factor of the compound using Hexanes:AcOEt (1:2) as solvent system by column chromatography. Format: physicochemical.
Data set [13] deals with T6, Tyrosine-protein phosphatase non-receptor type 1 (Homo sapiens). Kind of data set: Binding affinity to 6-His-N-terminal tagged human PTP1B expressed in Escherichia coli BL21 (DE3) cells assessed as protein aggregate formation up to 100 uM after 1 hr by native PAGE analysis.
The nature of data set [14]: Retardation factor of the compound using Hexanes:AcOEt (7:3) as solvent system by column chromatography. Format: physicochemical.
Data set [15] concerns the target Lysozyme C (Gallus gallus) (UniProt P00698). The experiment in a line: Binding affinity to hen egg lysozyme after 3 hrs by tryptophan emission monitoring analysis.
For data set [16], the target named is T5, Low molecular weight phosphotyrosine protein phosphatase (Homo sapiens). Kind of data set: Binding affinity to full length 6-His-N-terminal tagged human LMW-PTP expressed in Escherichia coli BL21 (DE3) cells assessed as protein aggregate formation up to 100 uM after 1 hr by native PAGE analysis.
In data set [17] the target is T6, Tyrosine-protein phosphatase non-receptor type 1 (Homo sapiens). Kind of data set: Binding affinity to 6-His-N-terminal tagged human PTP1B expressed in Escherichia coli BL21 (DE3) cells after 3 hrs by tryptophan emission monitoring analysis.
The next data set concerns the target Albumin (Bos taurus, UniProt P02769). The experiment in a line: Binding affinity to bovine serum albumin after 3 hrs by tryptophan emission monitoring analysis. Particulars: cattle.
For data set [18], the target named is T5, Low molecular weight phosphotyrosine protein phosphatase (Homo sapiens). The experiment in a line: Binding affinity to full length 6-His-N-terminal tagged human LMW-PTP expressed in Escherichia coli BL21 (DE3) cells after 3 hrs by tryptophan emission monitoring analysis.
The nature of data set [19]: Retardation factor of the compound using CHCl3:MeOH (9:1) as solvent system by column chromatography. Format: physicochemical.
Data set [20] addresses T5, Low molecular weight phosphotyrosine protein phosphatase (Homo sapiens). Kind of data set: Inhibition of full length 6-His-N-terminal tagged human LMW-PTP expressed in Escherichia coli BL21 (DE3) cells assessed as pNP formation using pNPP as substrate at 100 uM by plate reader analysis in presence of 50 mM MgCl2.
In data set [21] the target is T6, Tyrosine-protein phosphatase non-receptor type 1 (Homo sapiens). Particulars: BL21-DE3, 5 uM.
Description: Reversible inhibition of 6-His-N-terminal tagged human PTP1B expressed in Escherichia coli BL21 (DE3) cells using pNPP as substrate at 5 uM incubated for 15 mins prior to substrate addition measured after drug wash out by plate reader analysis
Data set [22] has as its target T4, M-phase inducer phosphatase 2 (Homo sapiens). The experiment in a line: Inhibition of 6-His-N-terminal tagged human CDC-25B isoform 3 catalytic domain expressed in Escherichia coli BL21 (DE3) cells assessed as pNP formation using pNPP as substrate at 100 uM by plate reader analysis in presence of 50 mM MgCl2.

Active and inactive are the calls of the source. The rule behind the calls is not given here.

Chain of Lysozyme C (Gallus gallus) (P00698 whole entry): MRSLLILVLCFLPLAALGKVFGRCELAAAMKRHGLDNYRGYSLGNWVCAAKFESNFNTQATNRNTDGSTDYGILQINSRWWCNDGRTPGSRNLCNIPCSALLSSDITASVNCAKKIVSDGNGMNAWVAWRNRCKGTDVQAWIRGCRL
Chain of Albumin (P02769 whole entry): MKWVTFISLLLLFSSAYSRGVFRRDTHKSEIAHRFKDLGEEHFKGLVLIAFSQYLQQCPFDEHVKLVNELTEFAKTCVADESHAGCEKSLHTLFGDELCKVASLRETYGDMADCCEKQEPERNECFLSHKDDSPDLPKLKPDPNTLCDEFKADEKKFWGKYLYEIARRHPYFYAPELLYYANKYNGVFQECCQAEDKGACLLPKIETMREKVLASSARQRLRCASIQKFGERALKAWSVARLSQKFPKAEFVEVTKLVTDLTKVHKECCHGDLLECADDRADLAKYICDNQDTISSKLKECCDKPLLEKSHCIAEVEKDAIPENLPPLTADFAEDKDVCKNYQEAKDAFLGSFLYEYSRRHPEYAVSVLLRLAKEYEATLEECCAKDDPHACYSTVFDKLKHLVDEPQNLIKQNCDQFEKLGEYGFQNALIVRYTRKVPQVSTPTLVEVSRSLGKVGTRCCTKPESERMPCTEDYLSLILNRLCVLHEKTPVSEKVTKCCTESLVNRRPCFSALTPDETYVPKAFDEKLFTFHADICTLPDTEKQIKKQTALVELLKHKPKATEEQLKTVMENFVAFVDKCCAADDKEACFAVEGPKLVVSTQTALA

As for `CCCCCCCCCCCCCCCC(=O)C1=C(O)C(COC(=O)c2ccccc2C(=O)c2ccccc2)OC1=O` (stereo unspecified), the IC50 in data set [1] was found to be 0.5 µM; in [2], 6.3 µM; in [3] it was 10.1 µM.
As for `CCCCCCCCCCCCCCCC(=O)C1=C(O)C(COC(C)=O)OC1=O` (stereo unspecified), the IC50 in data set [1] is 0.4 µM; in data set [2], 10.8 µM; in data set [3] it was 10 µM.
Turning to `CC(=O)C1=C(O)OC(C)(C)OC1=O`, the inhibition result in data set [4] and in data set [5] was “inactive” in each case. Also, the IC50 in data set [1] was greater than 100 µM.
The molecule `CCCCCCCCCCCCCCCCCC(=O)C1=C(O)OC(C)(C)OC1=O` displayed a Rf in data set [6] of 0.51. Moreover, the IC50 in data set [1] turned out to be 0.6 µM; in [2], 6.5 µM; in data set [3], 5.3 µM.
`CCCCCCCCCCCCCCCC(=O)C1=C(O)OC(C)(C)OC1=O`: the inhibition result in data set [7] was “inactive”. Besides, the Rf in [6] stood at 0.5. In addition, the inhibition result in [8] and in [10] was “Active” each time. Further, the inhibition result in data set [9] is “tde”. Also, the IC50 in data set [1] worked out at 1 µM; in data set [2] it was 13.7 µM; in data set [3], 22 µM.
With `CCCCCCCCCCCCCCCC(=O)C1=C(O)OC(CC)(CC)OC1=O`, the Rf in data set [11] was 0.59. In addition, the half-inhibitory concentration (IC50) in [1] is 1.1 µM; in data set [2] it was 4.6 µM; in data set [3] it was greater than 100 µM.
Consider `CCCC(=O)C1=C(O)OC(C)(C)OC1=O`, for which the inhibition result in data set [4] and in data set [5] was “inactive” in each case. Also, the Rf in data set [12] was found to be 0.47. Moreover, the IC50 in data set [1] was greater than 100 µM.
On to `CCCCCCCCCCCCCCCC(=O)C1=C(O)C(COS(C)(=O)=O)OC1=O` (stereo unspecified), for which the IC50 in [1] was 0.4 µM; in [2] it was 8 µM; in [3] it was 3.3 µM.
On to `CC(C)C(=O)C1=C(O)OC(C)(C)OC1=O`, for which the inhibition result in [5] was “inactive”. In [12], the Rf is on record as 0.5. Further, the concentration for half-maximal inhibition (IC50) is 72.7 µM in data set [1] and greater than 100 µM in data set [2].
In [11], `CCCCCCCCCCCCCCCC(=O)C1=C(O)OC2(CCCC2)OC1=O` returned a Rf of 0.59. Moreover, the IC50 in data set [1] worked out at 0.8 µM; in [2], 7 µM; in data set [3], 9.6 µM.
On to `CCCCCCCCCCCCCCCC(=O)OC1=CC(=O)OC(COCc2ccccc2)C1` (stereo unspecified), for which the outcome in data set [13] and in data set [16] was inactive. In addition, the IC50 in [1] was 8.2 µM; in data set [2], greater than 100 µM; in [3], greater than 100 µM. This molecule also showed a Rf in data set [14] of 0.72. Further, the outcome in [15], in data set [17] and in data set [18] was Active. Further, the result at Albumin was Active.
`CCCCCCCCCC(=O)C1=C(O)OC(C)(C)OC1=O` returned a Rf in data set [11] of 0.49. The IC50 in data set [1] is 28.7 µM; in [2], greater than 100 µM; in data set [3] it was greater than 100 µM.
Turning to `CCCCCCCCCCCCCCCC(=O)C1=C(O)C(COC(=O)c2ccc(C(=O)c3ccccc3)cc2)OC1=O` (stereo unspecified), the IC50 in data set [1] came to 0.3 µM; in data set [2], 5.9 µM; in data set [3] it was 3.8 µM.
On to `CCCCCCCCCCCCCCCC(=O)C1=C(O)CC(COCc2ccccc2)OC1=O` (stereo unspecified), for which the IC50 in [1] is 5.6 µM; in data set [2] it was 7.2 µM; in data set [3], greater than 100 µM. Also, the Rf in data set [14] was found to be 0.71.
Consider `CCCCCCCCCCCCCCCC(=O)C1=C(O)CC(CO)OC1=O` (stereo unspecified), for which the inhibition entry in [8] and in [10] was “Active” in each case. For the same molecule, the Rf in data set [19] amounted to 0.5. Further, the inhibition entry in data set [9] is “tde”. Also, the IC50 in data set [1] is 15.6 µM; in data set [2], 13.6 µM; in [3], greater than 100 µM.
Regarding `CCCCCCCCCCCCCCCC(=O)C1=C(O)C(CO)OC1=O` (racemic), the inhibition result in data set [20], in data set [7] and in data set [22] was “inactive” each time. Further, the inhibition result in [21], in data set [8] and in [10] was “Active” each time. Besides, the outcome in data set [13], in [15], in data set [16], in [17] and in [18] was Active. In addition, the inhibition entry in [9] is “tde”. For the same molecule, the results for the IC50 in data set [1], in data set [2] and in [3] were 0.7 µM, 12.4 µM and 8.6 µM, respectively. The outcome on Albumin was Active.
Regarding `C=C1OC(=O)C(C(=O)CCCCCCCCCCCCCCC)=C1O`, the half-inhibitory concentration (IC50) in data set [1] was 0.4 µM; in [2] it was 7.4 µM; in data set [3] it was 2.5 µM.
For the molecule `CCCCCCCCCCCCCCCC(=O)C1=C(O)OC(C)(CC)OC1=O` (stereo unspecified), the Rf in [11] is given as 0.42. In addition, the IC50 worked out at 0.8 µM in [1], 5.5 µM in [2] and 29.3 µM in [3].

By IC50 is commonly meant the concentration needed to halve the response being measured.
